Reference: ChEMBL document CHEMBL6096651, “Synthesis, evaluation and mechanism study of novel pyrazole enamides to alleviate lung injury” (Eur J Med Chem, 2025)
Activity calls are given as the source filed them. No cut-off for these calls is given here.

Assays:
RAW264.7 [1] = assay: Cytotoxicity against mouse RAW264.7 cells at 10 uM by CCK-8 assay; format: functional, cell-based
RAW264.7 [2] = assay: Anti-inflammatory activity against LPS-induced mouse RAW264.7 cells assessed as inhibition of IL-1beta mRNA level at 10 uM preincubated with compound for 1 hr followed by LPS-induction and measured after 4 to 24 hrs by RT-qPCR analysis; format: functional; settings: time 5-25 hrs
RAW264.7 [3] = assay: Anti-inflammatory activity against LPS-induced mouse RAW264.7 cells assessed as inhibition of TNF-alpha mRNA level at 2 uM preincubated with compound for 1 hr followed by LPS-induction and measured after 4 to 24 hrs by RT-qPCR analysis; format: functional, cell-based; settings: time 5-25 hrs
RAW264.7 [4] = assay: Anti-inflammatory activity against LPS-induced mouse RAW264.7 cells assessed as increase in NRF2 nuclear translocation by laser confocal scanning microscopic analysis; format: functional, cell-based
RAW264.7 [5] = assay: Activation of Nrf2/HO-1 signalling pathway in LPS-induced mouse RAW264.7 cells assessed as induction of Nrf2 nuclear translocation at 2 uM; format: cell-based; settings: filed as activator
RAW264.7 [6] = assay: Anti-inflammatory activity against LPS-induced mouse RAW264.7 cells assessed as inhibition of IL-1beta mRNA level at 2 uM preincubated with compound for 1 hr followed by LPS-induction and measured after 4 to 24 hrs by RT-qPCR analysis; format: functional, cell-based; settings: time 5-25 hrs
RAW264.7 [7] = assay: Anti-inflammatory activity against LPS-induced mouse RAW264.7 cells assessed as inhibition of IL-6 mRNA level at 10 uM preincubated with compound for 1 hr followed by LPS-induction and measured after 4 to 24 hrs by RT-qPCR analysis; format: functional; settings: time 5-25 hrs
RAW264.7 [8] = assay: Activation of Nrf2-Keap1-HO-1 signaling pathway in mouse RAW264.7 cells assessed as upregulation of P62 expression at 10 to 50 uM by Western blot analysis; format: cell-based; settings: filed as activator, dose 10-50 µM
Mus musculus [9] = assay: Anti-inflammatory activity against PM2.5-induced lung injury C57BL/6 mouse model assessed as reduction in number of cells in BALF at 15 to 60 mg/kg, po administered for 7 days; format: functional, organism-based; settings: dose 15-60 mg/kg, time 7.0 day
RAW264.7 [10] = assay: Activation of Nrf2/HO-1 signalling pathway in LPS-induced mouse RAW264.7 cells assessed as induction of Nrf2 nuclear translocation at 20 uM in presence of KI696; format: cell-based; settings: filed as activator
[11] = Toxicity in C57BL/6 mouse assessed as pathological changes in kidney at 15 to 60 mg/kg, po administered for 7 days by H and E staining based analysis; format: organism-based; settings: in vivo, 168 h, dose 15-60 mg/kg, time 7 day
RAW264.7 [12] = assay: Upregulation of Keap1 mRNA level in LPS-induced mouse RAW264.7 cells at 10 to 50 uM; format: functional, cell-based; settings: dose 10-50 µM
Mus musculus [13] = assay: Anti-inflammatory activity against PM2.5-induced lung injury C57BL/6 mouse model assessed as pulmonary alveoli collapse at 15 to 60 mg/kg, po administered for 7 days by H and E staining based analysis; format: functional, organism-based; settings: dose 15-60 mg/kg, time 7.0 day
RAW264.7 [14] = assay: Anti-inflammatory activity against LPS-induced mouse RAW264.7 cells assessed as inhibition of TNF-alpha mRNA level at 20 uM preincubated with compound for 1 hr followed by LPS-induction and measured after 4 to 24 hrs by RT-qPCR analysis; format: functional, cell-based; settings: time 5-25 hrs
Mus musculus [15] = assay: Anti-inflammatory activity against PM2.5-induced lung injury C57BL/6 mouse model assessed as infiltration of inflammatory cells at 15 to 60 mg/kg, po administered for 7 days by H and E staining based analysis; format: functional, organism-based; settings: dose 15-60 mg/kg, time 7.0 day
RAW264.7 [16] = assay: Anti-inflammatory activity against LPS-induced mouse RAW264.7 cells assessed as inhibition of IL-1beta mRNA level at 20 uM preincubated with compound for 1 hr followed by LPS-induction and measured after 4 to 24 hrs by RT-qPCR analysis; format: functional, cell-based; settings: time 5-25 hrs
RAW264.7 [17] = assay: Upregulation of HO-1 mRNA level in LPS-induced mouse RAW264.7 cells at 10 to 50 uM; format: functional, cell-based; settings: dose 10-50 µM
Mus musculus [18] = assay: Anti-inflammatory activity against PM2.5-induced lung injury C57BL/6 mouse model assessed as decrease in LY6G expression in lung at 15 to 60 mg/kg, po administered for 7 days by IHC analysis; format: functional, organism-based; settings: dose 15-60 mg/kg, time 7.0 day
[19] = Toxicity in C57BL/6 mouse assessed as reduction in body weight at 15 to 60 mg/kg, po administered for 7 days; format: organism-based; settings: in vivo, 168 h, dose 15-60 mg/kg, time 7 day
Mus musculus [20] = assay: Anti-inflammatory activity against PM2.5-induced lung injury C57BL/6 mouse model assessed as increase in Arg-1 level in lung at 15 to 60 mg/kg, po administered for 7 days by IHC analysis; format: functional, organism-based; settings: dose 15-60 mg/kg, time 7.0 day
RAW264.7 [21] = assay: Upregulation of Nrf2 mRNA level in LPS-induced mouse RAW264.7 cells at 10 to 50 uM; format: functional, cell-based; settings: dose 10-50 µM
Mus musculus [22] = assay: Anti-inflammatory activity against PM2.5-induced lung injury C57BL/6 mouse model assessed as reduction in WBC cells in peripheral blood at 15 to 60 mg/kg, po administered for 7 days; format: functional, organism-based; settings: dose 15-60 mg/kg, time 7.0 day
Mus musculus [23] = assay: Anti-inflammatory activity against PM2.5-induced lung injury C57BL/6 mouse model assessed as decrease in collagen formation in lung at 15 to 60 mg/kg, po administered for 7 days by Masson staining based analysis; format: functional, organism-based; settings: dose 15-60 mg/kg, time 7.0 day
RAW264.7 [24] = assay: Activation of Nrf2-Keap1-HO-1 signaling pathway in mouse RAW264.7 cells assessed as upregulation of HO-1 expression at 10 to 50 uM by Western blot analysis; format: cell-based; settings: filed as activator, dose 10-50 µM
RAW264.7 [25] = assay: Activation of Nrf2/HO-1 signalling pathway in LPS-induced mouse RAW264.7 cells assessed as induction of Nrf2 nuclear translocation at 20 uM; format: cell-based; settings: filed as activator
Mus musculus [26] = assay: Anti-inflammatory activity against PM2.5-induced lung injury C57BL/6 mouse model assessed as lung particle aggregation at 15 to 60 mg/kg, po administered for 7 days by H and E staining based analysis; format: functional, organism-based; settings: dose 15-60 mg/kg, time 7.0 day
RAW264.7 [27] = assay: Anti-inflammatory activity against LPS-induced mouse RAW264.7 cells assessed as inhibition of IL-6 mRNA level preincubated with compound for 1 hr followed by LPS-induction and measured after 4 to 24 hrs by RT-qPCR analysis; format: functional, cell-based; settings: dose 10-50 µM, time 5-25 hrs
[28] = Toxicity in C57BL/6 mouse assessed as liver damage at 15 to 60 mg/kg, po administered for 7 days by H and E staining based analysis; format: organism-based; settings: in vivo, 168 h, dose 15-60 mg/kg, time 7 day
NCI-H292 = assay: Anti-inflammatory activity against EGF-induced human NCI-H292 cells assessed as decrease in MUC5AC mRNA expression at 20 to 50 uM by RT-qPCR analysis; format: functional, cell-based; settings: dose 20-50 µM
Mus musculus [29] = assay: Anti-inflammatory activity against PM2.5-induced lung injury C57BL/6 mouse model assessed as inhibition of mucin expression in lung at 15 to 60 mg/kg, po administered for 7 days by AB-PAS staining based analysis; format: functional, organism-based; settings: dose 15-60 mg/kg, time 7.0 day
RAW264.7 [30] = assay: Anti-inflammatory activity against LPS-induced mouse RAW264.7 cells assessed as inhibition of IL-1beta mRNA level preincubated with compound for 1 hr followed by LPS-induction and measured after 4 to 24 hrs by RT-qPCR analysis; format: functional, cell-based; settings: dose 10-50 µM, time 5-25 hrs
RAW264.7 [31] = assay: Anti-inflammatory activity against LPS-induced mouse RAW264.7 cells assessed as inhibition of TNF-alpha mRNA level preincubated with compound for 1 hr followed by LPS-induction and measured after 4 to 24 hrs by RT-qPCR analysis; format: functional, cell-based; settings: dose 10-50 µM, time 5-25 hrs
Mus musculus [32] = assay: Anti-inflammatory activity against PM2.5-induced lung injury C57BL/6 mouse model assessed as decrease in iNOS expression in lung at 15 to 60 mg/kg, po administered for 7 days by IHC analysis; format: functional, organism-based; settings: dose 15-60 mg/kg, time 7.0 day
RAW264.7 [33] = assay: Anti-inflammatory activity against LPS-induced mouse RAW264.7 cells assessed as inhibition of IL-6 level incubated for 24 hrs by ELISA analysis; format: functional, cell-based; settings: RAW264.7, 24 h

SMILES: Cc1ccc(-n2nc(C(=O)N(C)/C=C\c3ccccc3)cc2C(C)(C)C)cc1
- Activity (RAW264.7 [1]): Active

SMILES: Cc1ccccc1-c1cc(C(=O)N(C)/C=C\c2ccccc2)n(-c2ccc(C(F)(F)F)cc2)n1
- inhibition at 10 µM (RAW264.7 [2]): 95.8%

SMILES: CN(/C=C\c1ccccc1)C(=O)c1cc(-c2ccccc2)nn1-c1ccc(C(F)(F)F)cc1
- inhibition at 10 µM (RAW264.7 [2]): 94.5%

SMILES: COc1cc([C@@H](CC(=O)O)c2ccc(C)c(CN3C[C@@H](C)Oc4ccccc4S3(=O)=O)c2)cc2nnn(C)c12
- Activity (RAW264.7 [3]): Active
- Activity (RAW264.7 [4]): Active
- Activity (RAW264.7 [5]): Active
- Activity (RAW264.7 [6]): Active

SMILES: CN(/C=C\c1ccccc1)C(=O)/C=C/c1ccccc1 [LANSIUMAMIDE B]
- inhibition at 10 µM (RAW264.7 [2]): 18%
- inhibition at 10 µM (RAW264.7 [7]): 73.4%

SMILES: CN(/C=C\c1ccccc1)C(=O)c1cc(-c2ccccc2C(F)(F)F)nn1-c1ccc(C(F)(F)F)cc1
- inhibition at 10 µM (RAW264.7 [2]): 96%

SMILES: CN(/C=C\c1ccccc1)C(=O)c1cc(C(C)(C)C)n(-c2ccc(F)cc2)n1
- Activity (RAW264.7 [8]): Active
- Activity (Mus musculus [9]): Active
- Activity (RAW264.7 [10]): Active
- Activity [11]: Non-toxic
- Activity (RAW264.7 [12]): Active
- Activity (Mus musculus [13]): Active
- Activity (RAW264.7 [14]): Active
- inhibition at 10 µM (RAW264.7 [2]): 96%
- inhibition at 10 µM (RAW264.7 [7]): 60.3%
- Activity (Mus musculus [15]): Active
- Activity (RAW264.7 [16]): Active
- Activity (RAW264.7 [17]): Active
- Activity (Mus musculus [18]): Active
- Activity [19]: Non-toxic
- Activity (Mus musculus [20]): Active
- Activity (RAW264.7 [21]): Active
- Activity (Mus musculus [22]): Active
- Activity (Mus musculus [23]): Active
- Activity (RAW264.7 [24]): Active
- Activity (RAW264.7 [4]): Active
- Activity (RAW264.7 [25]): Active
- Activity (Mus musculus [26]): Active
- Activity (RAW264.7 [27]): Dose-dependent-effect
- Activity [28]: Non-toxic
- Activity (NCI-H292): Active
- Activity (Mus musculus [29]): Active
- Activity (RAW264.7 [30]): Dose-dependent-effect
- Activity (RAW264.7 [31]): Dose-dependent-effect
- Activity (Mus musculus [32]): Active
- IC50 (RAW264.7 [33]): 4.82 µM

SMILES: COc1ccc(-n2nc(C(=O)N(C)/C=C\c3ccccc3)cc2C(C)(C)C)cc1
- inhibition at 10 µM (RAW264.7 [2]): 94.7%

SMILES: Cc1cccc(-c2cc(C(=O)N(C)/C=C\c3ccccc3)n(-c3ccc(C(F)(F)F)cc3)n2)c1
- inhibition at 10 µM (RAW264.7 [2]): 9.84%
- inhibition at 10 µM (RAW264.7 [7]): 49.5%

SMILES: CN(/C=C\c1ccccc1)C(=O)c1cc(-c2ccccc2Cl)nn1-c1ccc(C(F)(F)F)cc1
- inhibition at 10 µM (RAW264.7 [2]): 97.1%
- inhibition at 10 µM (RAW264.7 [7]): 53.9%

SMILES: CN(/C=C\c1ccccc1)C(=O)c1cc(-c2ccccc2F)nn1-c1ccc(C(F)(F)F)cc1
- inhibition at 10 µM (RAW264.7 [2]): 96.5%
- inhibition at 10 µM (RAW264.7 [7]): 50.2%

SMILES: Cc1ccc(-c2cc(C(=O)N(C)/C=C\c3ccccc3)n(-c3ccc(C(F)(F)F)cc3)n2)cc1
- inhibition at 10 µM (RAW264.7 [2]): 91.1%

SMILES: CN(/C=C\c1ccccc1)C(=O)c1cc(-c2ccc(C(F)(F)F)cc2)nn1-c1ccc(C(F)(F)F)cc1
- inhibition at 10 µM (RAW264.7 [2]): 93.5%
